Common to all, as to type: cell-based, human
Assay [1] has as its system red blood cells from individuals having colorectal cancer. Nature of the assay: Cytokine release from red blood cells of individuals having colorectal cancer incubated with protease inhibitors (27-plex). The following applies: colorectal cancer red blood cells vs no protease inhibitors. As for the experimental part:
Whole blood was collected from volunteers with by venepuncture directly into EDTA vacutainers (k2EDTA vacutainers, BD Biosciences). The fractions of blood were collected and processed at room temperature within 4 hours of collection. For multiplex analysis (BioPlex analysis) the samples were stored at −80° C. prior to analysis. The red blood cells were isolated using dextran sedimentation as follows. Whole blood was centrifuged (1500 g, 10 minutes) and the upper plasma layer was discarded. The remaining cell pellet was resuspended in an equal volume of sodium chloride (0.15 M). Dextran (6% w/v in 0.15 M sodium chloride) was then added to this cellular suspension at a 1:4 ratio (dextran:cell suspension). The solution was left at room temperature for 30 minutes for red blood cell sedimentation to the bottom of the tube. The upper white blood cell rich layer was discarded and the lower red blood cell fraction was isolated. The red blood cell fraction was washed once in phosphate buffered saline (PBS, 500 g, 5 minutes) and the remaining red blood cell pellet was counted (Coulter Act Diff, Beckman Coulter). The red blood cells were then diluted to 400 million cells/mL in PBS and incubated at 37° C. and 5% CO2 for 24 hours. Some samples were also incubated with the individual protease inhibitors in Table 5, a commercial protease inhibitor cocktail (cOmplete, Roche), or the A8127s protease inhibitor cocktail during the PBS incubation. The A8127s protease inhibitor cocktail comprised antipain-dihydrochloride (50 μg/mL); bestatin (40 μg/mL); E-64 (10 μg/mL); leupeptin (5 μg/mL); pepstatin (0.7 μg/mL); phosphoramidon (330 μg/mL); Pefabloc SC (1 mg/mL); EDTA-Na2 (0.5 mg/mL); and aprotinin (2 μg/mL).
After incubation, the resulting conditioned PBS was isolated by centrifugation (500 g, 5 minutes). The samples were stored at −80° C. The conditioned PBS samples were then analysed on a 27-plex human cytokine panel that assays for FGF basic, Eotaxin, G-CSF, GM-CSF, IFN-γ, IL-1β, IL-1ra, IL-2, IL-4, IL-5, IL-6, IL-7, IL-8, IL-9, IL-10, IL-12(p70), IL-13, IL-15, IL-17, IP-10, MCP-1, MIP-1α, MIP-1β, PDGF-BB, RANTES, TNF-α, and VEGF (Bio-Plex Pro 27-plex, Bio-Rad). The assay was performed according to manufacturer's instructions using an automated magnetic wash station (BioPlex Pro II, Bio-Rad) for the washing steps. The assay was run on the Luminex® 200™ system (Bio-Rad) and fluorescent values were collected. The calibration curve for each cytokine was analysed with 5 parametric logistic curve regression using BioPlex manager software (ver. 5.0, Bio-Rad, USA).
Significant differences (p<0.05) were determined using Student T-tests. […]

Assay [2] concerns red blood cells from healthy individuals. Nature of the assay: Cytokine release from red blood cells of healthy individuals incubated with protease inhibitors (27-plex and 21-plex Bio-Plex). The following applies: for effect on cytokine release from healthy red blood cells individually: individual inhibitors at Table 5 concentrations. As for the experimental part: Blood samples from healthy volunteers were used to evaluate the effect of specific protease inhibitors on proteins from red blood cells. Whole blood was collected from healthy volunteers by venepuncture (n≥3) directly into EDTA vacutainers (k2EDTA vacutainers, BD Biosciences). The fractions of blood were collected and processed at room temperature within 4 hours of collection. For multiplex analysis (BioPlex analysis) the samples were stored at −80° C.
The red blood cells were isolated using dextran sedimentation as follows. Whole blood was centrifuged (1500 g, 10 minutes) and the upper plasma layer was discarded. The remaining cell pellet was resuspended in an equal volume of sodium chloride (0.15 M). Dextran (6% w/v in 0.15 M sodium chloride) was then added to this cellular suspension at a 1:4 ratio (dextran:cell suspension). The solution was left at room temperature for 30 minutes for red blood cell sedimentation to the bottom of the tube. The upper white blood cell rich layer was then discarded and the lower red blood cell fraction isolated. The red blood cell fraction was washed once in phosphate buffered saline (PBS, 500 g, 5 minutes) and the remaining red blood cell pellet was counted (Coulter Act Diff, Beckman Coulter). The red blood cells were then diluted to 400 million cells/mL in PBS and were incubated at 37° C. and 5% CO2 for 24 hours. Some samples were also incubated with the protease inhibitors indicated in Table 5 during the PBS incubation.
After incubation, the resulting conditioned PBS was isolated by centrifugation (500 g, 5 minutes) and then stored at −80° C. The conditioned PBS samples were then analysed on the multiplex cytokine assays. Two multiplex assays were utilised. The first was a 27-plex human cytokine panel that assays for FGF basic, Eotaxin, G-CSF, GM-CSF, IFN-γ, IL-1β, IL-1ra, IL-2, IL-4, IL-5, IL-6, IL-7, IL-8, IL-9, IL-10, IL-12(p70), IL-13, IL-15, IL-17, IP-10, MCP-1, MIP-1α, MIP-1β, PDGF-BB, RANTES, TNF-α, and VEGF, and the second was a 21-plex human cytokine panel that assays for IL-1α, IL-2Ra, IL-3, IL-12, IL-16, IL-18, CTACK, GRO-α, HGF, IFN-α2, LIF, MCP-3, M-CSF, MIF, MIG, β-NGF, SCF, SCGF-β, SDF-1α, TNF-β, TRAIL (Bio-Plex Pro 27-plex and 21-plex, Bio-Rad). The assays were performed according to manufacturer's instructions using an automated magnetic wash station (BioPlex Pro II, Bio-Rad) for the washing steps. The assays were run on the Luminex® 200™ system (Bio-Rad) and fluorescent values were collected. The calibration curve for each cytokine was analysed with 5 parametric logistic curve regression using BioPlex manager software (ver. 5.0, Bio-Rad, USA).
The fold change was determined for proteins in red blood cell-conditioned PBS at 400 million cells/mL following incubation at 37° C. for 24 hours with protease inhibitor cocktail or individual protease inhibitors from healthy participants. […] Significant differences (p<0.05) were determined using Student T-tests.
To determine the effect of a combination of protease inhibitors on the release of proteins from red blood cells, a protein profile was obtained from healthy red blood cells incubated with protease inhibitor cocktails. […] Healthy red blood cells were incubated with A8127s and the cOmplete protease inhibitor cocktail (Roche).

In another assay the test system is red blood cells. Nature of the assay: Protein profile in red blood cell lysates using cationic salt (21-plex). The following applies: PBS containing 100 mM LiCl vs PBS. As for the experimental part:
Red blood cells were isolated using dextran sedimentation as follows. Whole blood was centrifuged (1500 g, 10 minutes) and the upper plasma layer was discarded. The remaining cell pellet was resuspended in an equal volume of sodium chloride (0.15 M). Dextran (6% w/v in 0.15 M sodium chloride) was then added to this cellular suspension at a 1:4 ratio (dextran:cell suspension). This solution was left at room temperature for 30 minutes for red blood cell sedimentation to the bottom of the tube. After this time the upper white blood cell rich layer and the lower red blood cell fraction were separated and the white blood cells discarded. The lower red blood cell fraction was washed twice in phosphate buffered saline (PBS, 500 g, 5 minutes). The supernatant was discarded, and the red blood cell pellet resuspended in either PBS or PBS containing 100 mM LiCl.
The red blood cells were subjected to 3 freeze-thaw cycles to ensure complete cellular lysis. […] The red blood cell lysates were analysed on a 21-plex human cytokine panel that assays for IL-1α, IL-2Ra, IL-3, IL-12, IL-16, IL-18, CTACK, GRO-α, HGF, IFN-α2, LIF, MCP-3, M-CSF, MIF, MIG, β-NGF, SCF, SCGF-β, SDF-1α, TNF-β, TRAIL (Bio-Plex Pro 27-plex and 21-plex, Bio-Rad). […] The calibration curve for each cytokine was analysed with 5 parametric logistic curve regression using BioPlex manager software (ver. 5.0, Bio-Rad, USA).

Where [3] appears, read: healthy red blood cells, in words.

Numbered stars: 1 amine (or outer) side, 2 acyl side, 3 side chain; on linkers, the order of the positions; unused ones are H or OH. Square brackets hold non-standard residues; d marks the D form. Peptide text beside a SMILES is read from it. * marks the point of attachment. ξ: configuration not given here. Sta = CC(C)C[C@H](N)[C@@H](O)CC(=O)O; Isovaleryl = CC(C)CC(=O)*; ξR = N=C(N)NCCCC(N)C(=O)O; ξF = NC(Cc1ccccc1)C(=O)O; CO = O=C([*:1])[*:2]

Consider `CC(C)[C@H](NC(=O)[C@H](CCCN=C(N)N)NC(=O)NC(Cc1ccccc1)C(=O)O)C(=O)NC(C=O)CCCN=C(N)N.Cl.Cl` (stereo partly drawn) [Sample ID 3, Antipain-dihydrochloride] ({ξF-CO}-Arg-Val-[ξR]-aldehyde), for which, in assay [1], the “concentration of IL-1β, IL-8, TNF-α, MIP-1α, G-CSF and IL-6” value is on record as “decreasing”; the “concentration of released IFN-γ, IL-12(p70), IL-15, IL-17, IL-13, IL-7, IP-10, PDGF-bb and IL-2” value was “increased”. Also, the “effect on cytokine release from healthy red blood cells individually” value (“effect on cytokine release” below) in assay [2] is “significant effect”.

Take `CC(C)C[C@H](NC(=O)[C@@H](O)[C@H](N)Cc1ccccc1)C(=O)O` [Sample ID 4, Bestatin]: in assay [2] (setting [3]), the “concentration of HGF following red blood cell incubation” value is “dramatically increased”; the “concentration of released IFN-a2, IL-18, MIF, TRAIL, HGF, and IL12-p40” value is recorded as “alters”. Moreover, in assay [2], the “effect on cytokine release” value is recorded as “significant effect”.

For the compound `CC(C)C[C@H](NC(=O)[C@H]1O[C@@H]1C(=O)O)C(=O)NCCCCN=C(N)N` [Sample ID 5, E-64], in assay [2], the “effect on cytokine release” value is on record as “significant effect”.

Regarding `CC(=O)N[C@@H](CC(C)C)C(=O)N[C@@H](CC(C)C)C(=O)N[C@H](C=O)CCCNC(=N)N` [Sample ID 6, Leupeptin], the “effect on cytokine release” value in assay [2] was “significant effect”.

For the compound `CC(C)CC(=O)N[C@H](C(=O)N[C@H](C(=O)N[C@@H](CC(C)C)[C@@H](O)CC(=O)N[C@@H](C)C(=O)N[C@@H](CC(C)C)[C@@H](O)CC(=O)O)C(C)C)C(C)C` [Sample ID 7, Pepstatin] (Isovaleryl-VV[Sta]A[Sta]-OH), in assay [2] (setting [3]), the “concentration of HGF following red blood cell incubation” value is “significantly decreased”; the “effect on concentration of IFN-a2, MIF, and HGF” value was “opposite effect of bestatin”. Besides, the “effect on cytokine release” value in assay [2] is “significant effect”.

In the case of `CC(C)C[C@H](NP(=O)(O)O[C@@H]1O[C@@H](C)[C@H](O)[C@@H](O)[C@H]1O)C(=O)N[C@@H](Cc1c[nH]c2ccccc12)C(=O)O` [Sample ID 8, Phosphoramidon], the “effect on cytokine release” value in assay [2] is “significant effect”.

As to `Cl.NCCc1ccc(S(=O)(=O)F)cc1` [Sample ID 9, Pefabloc SC], in assay [1], the “concentration of IL-1β, IL-8, IL-9, TNF-α, IL-1ra, MCP-1, MIP-1α, G-CSF and IL-6” value is “decreasing”; the “released concentration of IL-13 and IL-7” value is “increased”. Also, the “effect on cytokine release” value in assay [2] is “significant effect”.

Consider `O=C([O-])CN(CCN(CC(=O)[O-])CC(=O)O)CC(=O)O.[Na+].[Na+]` [Sample ID 10, EDTA-Na2], for which, in assay [2], the “effect on cytokine release” value is “significant effect”.

On to `[Cl-].[Li+]` [lithium chloride], for which, in the assay on red blood cells, the “level of several of the proteins in the assay (21-plex human cytokine panel)” value is reported as “increased and/or enhanced”.

Regarding Aprotinin [Sample ID 11], in assay [2], the “effect on cytokine release” value is given as “significant effect”.

These data come from patent publication US11693006B2, “Blood profiling with protease inhibitors” (Sangui Bio Pty. Ltd, priority 2016, dated 2023).
